Measured values: patent US12516022B2, “Derivatives of aryl hydrocarbon receptor agonists” (AZORA THERAPEUTICS, INC., priority 2021, dated 2026)
pEC50: −log10 of the molar value.

What was measured:
AhR [1] = molecular target: T1, AhR (Rattus norvegicus, UniProt P41738); experiment: AhR/arnt-luciferase reporter assay in rat H4IIE cells
T1 sequence (P41738 10-853): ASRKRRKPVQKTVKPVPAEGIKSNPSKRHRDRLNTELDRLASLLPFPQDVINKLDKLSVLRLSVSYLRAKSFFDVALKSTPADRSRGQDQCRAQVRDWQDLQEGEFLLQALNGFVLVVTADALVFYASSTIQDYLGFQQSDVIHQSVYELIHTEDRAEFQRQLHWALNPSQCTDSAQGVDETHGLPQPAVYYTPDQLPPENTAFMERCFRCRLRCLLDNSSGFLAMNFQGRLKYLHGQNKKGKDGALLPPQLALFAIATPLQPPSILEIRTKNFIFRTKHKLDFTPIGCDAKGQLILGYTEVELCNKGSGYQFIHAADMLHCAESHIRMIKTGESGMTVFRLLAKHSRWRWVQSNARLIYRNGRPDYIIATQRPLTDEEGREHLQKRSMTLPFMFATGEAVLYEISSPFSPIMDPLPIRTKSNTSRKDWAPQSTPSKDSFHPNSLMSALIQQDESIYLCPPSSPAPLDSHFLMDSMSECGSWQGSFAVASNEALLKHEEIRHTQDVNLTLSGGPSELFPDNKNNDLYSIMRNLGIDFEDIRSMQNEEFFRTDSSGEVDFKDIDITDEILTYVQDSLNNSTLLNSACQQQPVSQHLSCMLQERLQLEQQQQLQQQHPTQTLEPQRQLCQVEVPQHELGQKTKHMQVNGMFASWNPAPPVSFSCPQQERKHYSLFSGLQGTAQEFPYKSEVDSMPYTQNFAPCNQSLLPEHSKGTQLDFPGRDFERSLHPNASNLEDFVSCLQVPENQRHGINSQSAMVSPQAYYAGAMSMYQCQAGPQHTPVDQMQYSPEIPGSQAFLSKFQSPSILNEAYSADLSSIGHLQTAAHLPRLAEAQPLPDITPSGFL
Method: (§1) TCDD and MeBio were included in the study as positive controls. These were added into cell culture media containing charcoal-stripped fetal bovine serum to produce a 2× stock and then added to the reporter cells. The reporter cells were human Huh7 cells or Rat H4IIE cell lines with the native AhR and an AhR/arnt-Luciferase reporter vector. The final concentration of DM50 was 0.1%. Cells were incubated for 22 hours at 37° C. prior to addition of the luciferase detection reagent and measurement of activity in relative luminescence units.

[2] = system: dextran sodium sulfate (DSS)-induced acute colitis; experiment: DSS-induced acute colitis mouse model, Compound 8 (Example 6); format: in vivo, C57 BL/6J mice; details: mice, 2 mg/kg/day oral gavage twice daily, 9 day test period
Method: Eight week old female C57 BL/6J mice, around 20 g body weight purchased from Charles River Laboratories were bred in specific pathogen free IVC cages (4 mice in each cage) in a temperature controlled (20±2° C.) room with a 12 hour light-dark cycle. Chow pellets and tap water were available ad libitum. All experimental protocols were approved by the Institutional Animal Care and Use Committee. The mice were acclimated at the animal facility for at least of three days before the experiments.
To generate dextran sodium sulfate (DSS)-induced acute colitis, the mice were induced with 3% DSS (molecular weight 36,000-50,000; MP Biomedicals, Santa Ana, CA, USA) in their drinking water for 7 consecutive days, and then switched to normal water. DSS solution was freshly prepared and changed daily. These mice were euthanized on day 8 (9th day of the experiment).
The mice were divided into groups with eight mice in each group. Mice were dosed with either 2 mg/kg/day Compound 8, twice daily in 200 μL distilled water (pH=7.0) by gavage from Day 0 to Day 9. Mice in the vehicle group were given only 200 μL distilled water by gavage.
Body weight and disease activity index (DAI) soring were recorded daily to assess the colitis. DAI score was the sum of the weight loss score, stool score and bleeding subscores. A blinded scoring system was employed to assess the colitis. […]

AhR [3] = molecular target: T2, AhR (Homo sapiens, UniProt P35869); experiment: AhR/arnt-luciferase reporter assay in human Huh7 cells
T2 sequence (P35869 11-848): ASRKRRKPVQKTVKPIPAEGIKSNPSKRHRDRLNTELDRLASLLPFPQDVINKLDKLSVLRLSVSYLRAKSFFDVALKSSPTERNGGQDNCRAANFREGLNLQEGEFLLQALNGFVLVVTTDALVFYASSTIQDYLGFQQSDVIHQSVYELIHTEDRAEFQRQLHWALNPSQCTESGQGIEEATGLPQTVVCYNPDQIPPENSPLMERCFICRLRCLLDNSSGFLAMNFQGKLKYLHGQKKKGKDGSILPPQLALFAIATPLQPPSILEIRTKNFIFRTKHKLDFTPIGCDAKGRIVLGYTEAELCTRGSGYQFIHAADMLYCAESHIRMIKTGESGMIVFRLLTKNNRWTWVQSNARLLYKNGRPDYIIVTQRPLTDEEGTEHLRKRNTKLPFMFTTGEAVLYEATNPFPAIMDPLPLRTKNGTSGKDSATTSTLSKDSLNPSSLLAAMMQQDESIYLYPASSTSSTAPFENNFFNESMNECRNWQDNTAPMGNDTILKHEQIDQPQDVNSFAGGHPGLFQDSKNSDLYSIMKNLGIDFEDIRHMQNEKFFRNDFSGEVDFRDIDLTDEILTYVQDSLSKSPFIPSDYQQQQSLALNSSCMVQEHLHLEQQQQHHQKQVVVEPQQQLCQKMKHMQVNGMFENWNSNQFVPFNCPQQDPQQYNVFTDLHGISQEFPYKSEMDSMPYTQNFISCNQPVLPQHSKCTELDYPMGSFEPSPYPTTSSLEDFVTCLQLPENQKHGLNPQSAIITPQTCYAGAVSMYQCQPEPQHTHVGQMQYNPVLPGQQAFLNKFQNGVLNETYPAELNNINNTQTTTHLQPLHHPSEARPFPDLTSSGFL
Method: as §1

SMILES: O=C1/C(=C2/C(=O)N(CO)c3ccccc32)Nc2ccccc21 [Compound 8]
- pEC50 (AhR [1]): 7.59
- Disease activity index (DAI) versus placebo [2]: lower disease activity index
- pEC50 (AhR [3]): 7.15
- Activation of the AhR compared with equimolar synthetic indirubin (AhR [3]; human Huh7 and rat H4IIE cells): activates the AhR to an equal or greater extent, and at the same or lower concentration, than an equimolar amount of synthetic indirubin
- EC50 greater than the EC50 for indirubin (AhR [3]; human Huh7 cells): about 20%
